The test system of data set [1] is PD-L1. Description: PD-L1 expression (RNA and protein) after HDAC inhibitor treatment in colorectal cell lines. It is filed as cell-based, human, mouse. The settings on record: for PD-L1 expression in MSS compared with MSI colorectal cell lines: MSS compared with MSI colorectal cell lines (summary statement); for PD-L1 expression upon HDAC inhibitor treatment, MSS cell lines: SW620, LS513, and CT26, IC50 and ½ IC50, 48 hours, HDAC3 inhibitor compared with HDAC6 and HDAC8 (FIG. 2), HDAC8 inhibitor concentration-dependent (FIG. 6). As to the method: (§1) The HDAC3 inhibitor experiment was conducted by harvesting cells 48 hours after the treatment at each inhibitor concentration and obtaining RNA and proteins. RGFP966 (S7229) purchased from SellekChem was used as an HDAC3 inhibitor. Specifically, SW620, LS513, DLD-1, CT26, and MC38 were individually cultured, and the experiments were conducted using the IC50 and ½ IC50 concentration on the basis of the previously determined IC50 concentration. RNA and protein samples were collected 48 hours after RGFP966 treatment. The RNA samples were isolated using the TRIzol, isopropanol, and chloroform, and the protein samples were collected by lysis with a lysis buffer (Roche, 4719956001). RNA was synthesized into cDNA using a cDNA synthesis kit (Bioneer, K-2044-B), and real-time PCR was performed using a method according to SYBR (Applied Biosystems, 4367659). Proteins were quantified using the Bradford assay (Bio-Rad, 50000006), and subjected to loading, transfer, blocking (3% skim milk; BD, 232100), primary antibody (24 h, 4 °C), and secondary antibody sequentially, thereby developing PD-L1.
The HDAC6 inhibitor experiment was conducted by the same method as in the HDAC3 inhibitor experiment of Experimental Example 3, and Nexturastat A HDAC6 selective inhibitor purchased from SellekChem was used as an HDAC6 inhibitor.
The HDAC8 inhibitor experiment was conducted by the same method as in the HDAC3 inhibitor experiment of Experimental Example 3, and PCI-34051 HDAC8 selective inhibitor purchased from SellekChem was used as an HDAC8 inhibitor.
The HDAC6 and HDAC8 inhibitor experiment was conducted by harvesting cells 48 hours after the treatment and then obtaining RNA and proteins.

The test system of data set [2] is PD-L1. Put plainly: PD-L1 expression by HDAC6 inhibitor, MSI versus MSS colorectal cancer cell lines. The data set is classed as cell-based. The settings on record: IC50 and half-IC50; MSI DLD-1, HCT116, MC38; MSS SW620, HT29, CT26; FIG. 15. As for the experimental part:
(§2) The IC50 values of the HDAC6 inhibitor (Nexturastat A) in three MSI colorectal cancer cell lines (DLD-1, HCT116, and MC38) and three MSS colorectal cancer cell lines (SW620, HT29, and CT26) were determined. The cells were then treated with the inhibitor at the IC50 and half-IC50 concentrations (concentration corresponding to ½ of the IC50 value), and the expression levels of the immune checkpoint proteins PD-L1 and B7H3 were measured.

For another data set, the system named is B7H3. Put plainly: B7H3 expression by HDAC6 inhibitor, MSI versus MSS colorectal cancer cell lines. It is filed as cell-based. The settings on record: IC50 and half-IC50; MSI DLD-1, HCT116, MC38; MSS SW620, HT29, CT26; FIG. 15. As for the experimental part:
as §2

Data set [3] is described as follows: Body weight of mice, HDAC6 inhibitor animal experiment. It is filed as in vivo, BALB/C mice. The settings on record: HDAC6i 20 mpk i.p. daily; FIG. 9D. As for the experimental part:
The animal experiment using an HDAC6 inhibitor was conducted using a total of three groups, a control group (control), an HDAC6i (Next A) group, and an HDAC6i (Next A)+anti-PD-L1 group. Nexturastat A (SellekChem) was used as HDAC6i (HDAC6 inhibitor), and #BE0101 (Bioxcell) was used as an anti-PD-L1 antibody. CT26 (1×10^6) cells and BALB/C mice were used. Three mice for the control group, three mice for the HDAC6i group, and four mice for the HDAC6i+anti-PD-L1 group were used.
• HDAC6i group: HDAC6i 20 mpk (mg/kg) intraperitoneally injected daily • HDAC6i+anti-PD-L1 group: HDAC6i 20 mpk intraperitoneally injected every day and anti-PD-L1 antibody 10 mpk intraperitoneally injected three times per week.

The subject of another data set is CT26 tumor. Description: CD8 T cell-dependent CT26 tumor growth suppression with anti-CD8a pre-treatment. The settings on record: concluded from anti-CD8a blocking. The data set is classed as in vivo, BALB/C mice. As for the experimental part: To examine the hypothesis that an HDAC6 inhibitor suppresses CT26 tumor growth in a CD8 T cell-dependent manner, an experiment on the combination with anti-CD8a antibody was further conducted by pre-treatment with anti-CD8a antibody, which binds to CD8 T cells. The experiment was conducted by intraperitoneally administering an anti-CD8a antibody to animals from 3 days before tumor cell injection at 3-day intervals to inhibit CD8 T cells and administering an HDAC6 inhibitor and an anti-PD-L1 antibody.
Specifically, the experiment was conducted on a total of four groups: a control group, an anti-CD8a group, an HDAC6i (Next A)+anti-PD-L1 group, and an HDAC6i (Next A)+anti-PD-L1+anti-CD8a group. CT26 cells (1×10^6) for a cell line, Nexturastat A (SellekChem) as HDAC6i (HDAC6 inhibitor), #BE0101 (Bioxcell) as an anti-PD-L1 antibody, and #BE017 (Bioxcell) as an anti-CD8a antibody were used. BALB/C mice were used. In addition, 6 mice for the control group, 6 mice for the anti-CD8a group, 6 mice for the HDAC6i (Next A)+anti-PD-L1 group, and 8 mice for the HDAC6i (Next A)+anti-PD-L1+anti-CD8a group were used. […]

Data set [4] concerns PD-L1. Description: PD-L1 expression after HDAC3 inhibitor treatment in mouse cells. The settings on record: IC50 and ½ IC50, 48 hours, FIG. 2. It is filed as cell-based. As to the method:
as §1

Take `CCCCN(Cc1ccc(C(=O)NO)cc1)C(=O)Nc1ccccc1` [Nexturastat A]: the “PD-L1 expression at the RNA and protein levels upon HDAC6 inhibitor treatment” value in the data set with PD-L1 [1] (MSS cell lines SW620, LS513, HT29, and CT26, depending on the concentration, 48 hours, FIG. 4) was “increase in PD-L1 expression at the RNA and protein levels”. Further, the “PD-L1 expression in MSS compared with MSI colorectal cell lines” value in the data set on PD-L1 [1] is given as “further up-regulated”. Also, the “PD-L1 expression in MSS compared with MSI cell line” value with PD-L1 [2] is reported as “distinct increase tendencies”. For the same molecule, the “B7H3 expression in MSS compared with MSI cell line” value with B7H3 was “distinct increase tendencies”. The “body weight of the animals” value in data set [3] is “not reduced”. In the data set with CT26 tumor, the “CD8 T cell dependence of CT26 tumor growth suppression” value is listed as “suppressed CT26 tumor growth in a CD8 T cell-dependent manner”.

As to `COc1ccc(Cn2ccc3ccc(C(=O)NO)cc32)cc1` [PCI-34051], in the data set on PD-L1 [1], the “PD-L1 expression in MSS compared with MSI colorectal cell lines” value is listed as “further up-regulated”; the “PD-L1 expression upon HDAC inhibitor treatment, MSS cell lines” value is “increase in PD-L1 expression at the RNA and protein levels”.

As to `Nc1cc(F)ccc1NC(=O)/C=C/c1cnn(C/C=C/c2ccccc2)c1` [RGFP966], the “PD-L1 expression upon HDAC inhibitor treatment, MSS cell lines” value in the data set with PD-L1 [1] is “small increases”. In addition, in the data set with PD-L1 [4], the “PD-L1 expression upon HDAC3 inhibitor treatment, mouse cells” value is “decrease tendency”.
